Here are results for two substances from patent EP1620056B1, “TUMOR CYTOTOXICITY INDUCED BY MODULATORS OF THE CXCR4 RECEPTOR” (Morehouse School of Medicine, priority 2003, dated 2004).

The test system of test [1] is MDA-MB231, MCF7, and DU4475. Nature of the test: Agarose gel electrophoresis / DNA fragmentation (DNA laddering) in CXCR4-expressing lines. The test is classed as cell-based, human. Conditions: positive control, 10 mM (6.35 mg/ml), 24 hours, compared to untreated cultures. On the procedure: Untreated or treated cells were collected, and DNA was harvested from normal or cancer cell cultures. Briefly, the cells were washed with PBS, pelleted at 1600 g for 20 minutes at 4°C, and resuspended in 50 mM Tris-HCl, pH 7.5, 20 mM EDTA buffer at about 10^7 cells/ml. The cells were then treated 2x with lysis buffer: 1.0% NP-40 (Sigma, St. Louis, MO) in the same Tris/EDTA buffer at RT for 2 minutes followed by centrifugation at 1600 g for 5 minutes. After the last spin, SDS was added to the supernatant to 1% final concentration, RNase A (Sigma, St. Louis, MO) was added to 5 mg/ml final concentration, and the solution incubated at 56°C for 2 hours. Subsequently, protease K (Promega, Madison, WI) was added to the solution to 2.5 µg/ml and incubated at 37°C for 2.5 hr. Ammonium acetate was added to 4 M final concentration, 0.7 volumes of isopropanol was added, the solution was put at -20°C overnight followed by centrifugation at 14,000 rpm for 30 minutes. The pellets were washed twice with 70% ethanol, dried and resuspended in 10 mM Tris-HCl, pH 7.5, 1 mM EDTA. DNA samples, 18 µg per condition, were prepared in neutral loading buffer to a final concentration of 0.02% bromophenol blue, 5% glycerol, 0.1% SDS, and 50 µg of ethidium bromide, loaded onto a neutral agarose gel (1.7%), and run at 50V for 2.5 hours. […]

Test [2] has as its system epithelial tumor cell lines. Description: Apoptotic assay of Gp 120 and Nef peptides. The test is classed as cell-based, human. Conditions: peptide sequences within Nef or Gp 120. The source says: The nef protein was expressed and purified in the inventors' laboratory. overlapping 20 mer peptides encompassing the entire nef protein and overlapping 15 mer peptides encompassing the entire Gp 120 protein were obtained from the NIH AIDS Research & Reference Reagent Program (McKesson HBC Bio-Services, MD) Other specific peptides designed from within Gp 120 or nef were obtained from SigmaGenosys.
Apoptosis generates DNA free ends which can be labeled in situ using terminal deoxynucleotidyl-transferase (TdT), incorporating an exogenously added labeled nucleotide to the DNA strand. This label can then be visualized directly by fluorescence or indirectly using anti-FITC-peroxidase, and a colorimetric assay. Cells on coverslips were washed with PBS, and fixed for 30 minutes at RT with 4% paraformaldehyde, in PBS, pH 7.4. They were then washed with PBS, and permeabilized with 0.1% Triton X-100 for 10 minutes at room temperature (RT). The slides were rinsed twice with PBS, and air dried for 2 minutes. The manufacturer's procedure for TUNEL staining the slides was followed (manufacturer's procedure for the In Situ Cell Death Detection Kit, AP; Boehringer Mannheim, Indianapolis, IN). Total cell counts were determined by counterstaining fixed cultures with 20 µg/ml of Hoechst 33258. […]

ceramide: in test [1], the DNA laddering entry is listed as “DNA laddering characteristic of apoptotic cells was observed”.

ALAETCONAWA: the “apoptotic properties of the sequence” value in test [2] is listed as “lost all apoptotic effects”.
